Tests used:
[1] = Formation of inclusion complexes with HPCD (UV spectroscopy, Hill linearization); format: physicochemical; conditions: pH 6.2, 22 °C; for EE, % / LC, %: 0.01 M
Procedure: To optimize the system composition, similar experiments were carried out on the formation of EG and apiol inclusion complexes with HPCD (Figure S1). […] According to these changes, the dissociation constants of the EG–HPCD and apiol–HPCD complexes (Figure S2) were calculated by Hill’s equation (Table 1). […] The physicochemical parameters of the interaction of APAB and terpenoids (X) with CD were studied by determining the concentration of substances in the aqueous fraction ([APAB] + [APAB-MCD]) according to the calibration dependence (Figure 1C) for systems with a constant amount of the essential oil component X and the concentration gradient MCD (Table 1). Theta (θ) is a fraction of the bound substance X:θ = [X-MCD]/([X-MCD] + [X]) and was calculated based on the dependence of the absorption intensity X on the MCD concentration in the system in the form of a sigmoidal Hill curve with subsequent linearization (Section 3, Section 3.3 and Section 3.4).
The molar excess of CD varied from 0.04 to 10). Further, the complexes were incubated for 1 h at 37 °C and then centrifuged ([…], 15 min, Eppendorf tubes) to separate the insoluble fractions. Complexes were studied by UV and FTIR spectroscopy.
UV spectra of solutions (point 3.3.1) were recorded on the AmerSham Biosciences UltraSpec 2100 pro device (USA) three times in the range of 200–400 nm in a quartz cell Hellma 100–QS with an optical path of 1 cm. Background spectrum (5 mM sodium phosphate buffer (pH 6.2) with 50% EtOH) was subtracted as a blank.
(1) Calculation of the dissociation constants X–MCD and X–HPCD, where X is a “guest” compound, considering the equilibrium: Xaq + n MCDaq ↔ X·nMCDaq, where Kd = [MCDaq]^n · [Xaq]/[X·nMCDaq].
First, fitting of the curves of change of the analytical signal ξ (peak intensity or peak position) versus concentration of the MCD or HPCD or was carried out using the Hill equations: (1) ξ = ξ∞ · [MCD]^n/([MCD]^n + K^n), where ξ∞—horizontal asymptote; (2) ξ = ξ0 + (ξ∞–ξ0) · [MCD]^n/([MCD]^n + K^n). Second, calculation n and Kd values by Hill’s linearization in n-binding site model: lg (θ/(1 – θ)) = n · lg [L] – lg Kd, where θ = |(ξ – ξ0)/(ξ∞ − ξ0)|is a fraction of the bound substance. N in Hill equation—number of drug molecules per CD torus.

[2] = Solid-phase FTIR microscopy of the EG–HPCD complex (distribution of EE); format: physicochemical; conditions: EG–HPCD complex in solid form
From the text: To level the overlap of bond fluctuations in water molecules and the effect of hydration, the spectra of the EG–HPCD complex in solid form were registered as complementary materials (Figure S6). There are characteristic peaks of EG, which were quenched in the aqueous phase, C–Carom and C=C of the ethylene group. In the solid phase, we observed peaks corresponding to the stretching oscillations of CH2, CH3 groups (2900–3000 cm^−^1) and O-H (3200–3500 cm^−^1) without solvent contribution. […] EG was effectively (EE > 70%) included in two-thirds of the sample by quantity, in the remaining part EE exceeded 25–35%.
ATR-FTIR spectra of samples’ solutions (point 3.3.1) were recorded using a Bruker Tensor 27 spectrometer equipped with a liquid nitrogen cooled MCT (mercury cadmium telluride) detector. Samples were placed in a thermostatic cell BioATR-II with ZnSe ATR element (Bruker, Ettlingen, Germany). The IR spectrometer was merged with a constant flow of N2 (NiGen HF-1, Clint, Italy). FTIR spectra were acquired from 900 to 3000 cm^−1 with 1 cm^−1 spectral resolution. For each spectrum, 50–70 scans were accumulated at 20 kHz scanning speed and averaged. ATR-FTIR spectra of solid samples placed on KBr glass were recorded using a Bruker Lumos II IR microscope in the region from 700 to 4000 cm^−1 with 1 cm^−1 spectral resolution with scanning in the area on average 1 × 1 microns. […]

[3] = Dissolution of APAB on inclusion into CD, observed in a light microscope; format: physicochemical; conditions: MCD and HPCD
Procedure: The dependence of the dissolution degree on the content of CD in the system was determined. […] Since soluble complex forms of EG, apiol and other individual components of essential oils have been obtained, a quantitative study of the adjuvant and synergistic activities of APAB is relevant but previously impossible because of the stratification of substances and the formation of oil fractions. The following are the results of experiments to determine the antibacterial and synergistic effects of adjuvant–CD complexes.

[4] = pH 6.2
Procedure: (3) Solubility of X in water C0 = [Xaq] = A/(ε · l) was determined by UV absorbance after centrifugation of samples (10 min, 10,000× g). l = 1 cm. ε—molar absorbance coefficient (Figure 1C).

Gram-negative bacteria = test system: Gram-negative bacteria; parameters: method as in PMID 19540744; conditions: cited from earlier work
[5] = parameters: method as in doi:10.1016/j.foodres.2009.06.006; conditions: complex with β-form of CD; cited from earlier work
E. coli = test system: E. coli; parameters: method as in PMID 20214546; conditions: EG in the form of a complex with CD; cited from earlier work
[6] = parameters: method as in PMID 20214546; conditions: host:guest molar ratio of 1:1; cited from earlier work

| SMILES | EE, % [1] [%] | LC, % [1] [%] | n [1] | EE in the remaining part of the sample ([2]; remaining part) | EE in two-thirds of the sample ([2]; two-thirds of the sample by quantity) [%] | amount of CD required for a noticeable conversion to the complex/soluble form [3] | molar excess of CD for almost complete dissolution [3] | Cmax in the Presence of 2 mM HPCD [4] | Cmax in the Presence of 2 mM MCD [4] | Cmax in the Presence of 10 mM HPCD [4] | Cmax in the Presence of 10 mM MCD [4] | reduction of the MIC of antibiotics by EG as an adjuvant (Gram-negative bacteria; Gram-negative bacteria, highest values for tetracycline and vancomycin) | concentration at which EG forms defects in the membranes of bacteria (Gram-negative bacteria; suggested) [mM] | half-dissociation period [5] [h] | concentration already active in growth inhibition (E. coli) [mg/mL] | initial amount of EG included in CD [6] [%] | mass fraction of EG in the sample [6] |
| --- | --- | --- | --- | --- | --- | --- | --- | --- | --- | --- | --- | --- | --- | --- | --- | --- | --- |
| C=CCc1ccc(O)c(OC)c1 [Eugenol, 4-allyl-2-methoxyphenol] | 56 ± 7 | 9 ± 1 | 1.2 ± 0.1 | 25–35% | > 70 | equimolar | 5 fold molar excess | 8.3 ± 0.2 (MCD), 8.5 ± 0.1 (HPCD) mM | 8.3 ± 0.2 (MCD), 8.5 ± 0.1 (HPCD) mM | 11 ± 1 (MCD), 13 ± 1 (HPCD) mM | 11 ± 1 (MCD), 13 ± 1 (HPCD) mM | 5–1000 times | 1 | 3 | 0.5 | ~92 | about 58% |
| CC1CCC(C(C)C)C(O)C1 (stereo not drawn) [Menthol] | – | – | – | – | – | – | – | – | 1.4 ± 0.2 mM | – | 8.5 ± 0.8 mM | – | – | – | – | – | – |
| C=CCc1cc(OC)c2c(c1OC)OCO2 [Apiol] | 7 ± 1 | 9 ± 1 | 1.56 ± 0.25 | – | – | 2 fold molar excess | 10–15 fold molar excess | – | – | – | – | – | – | – | – | – | – |

Reference: article PMC9321718 (Pharmaceuticals, 2022)
